TGI data for twelve compounds are collected here from PubChem BioAssay (NCI).

Among the test systems are A498 renal; A549 NSCLC; CCRF-CEM leukemia; COLO 205 colon; EKVX NSCLC; HCC-2998 colon; HCT-116 colon; HCT-15 colon; HT29 colon; KM12 colon; NCI-H23 lung; OVCAR-3 ovarian; OVCAR-8 ovarian; SF-295 CNS; SF-539 CNS; SK-MEL-2 melanoma; SK-MEL-28 melanoma; SK-MEL-5 melanoma; SW-620 colon; U251 CNS.
Experiment in all cases: DTP human tumour cell line panel, 48 h

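Tested at 5 concentrations; 48 h exposure; 96-well plates; endpoints linearly interpolated, else capped at highest concentration. Definition used: TGI = concentration required for complete inhibition of growth.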

In the case of `CCNC(=O)C(C)C1CCC2(C)C=CC(=O)C(C)=C2C1O` (stereo not given), the TGI in the experiment with A498 renal, in the experiment on A549 NSCLC, with CCRF-CEM leukemia, in the experiment on COLO 205 colon, in the experiment with EKVX NSCLC and in the experiment with HCC-2998 colon was above 100 µM in each case. Further, the concentration for total growth inhibition (TGI) in the experiment with HCT-116 colon, in the experiment on HCT-15 colon, in the experiment with HT29 colon, with KM12 colon, in the experiment with NCI-H23 lung and in the experiment with OVCAR-3 ovarian was above 100 µM each time. Also, the TGI in the experiment with OVCAR-8 ovarian, with SF-295 CNS, with SF-539 CNS, in the experiment with SK-MEL-2 melanoma, in the experiment on SK-MEL-28 melanoma and in the experiment with SK-MEL-5 melanoma was above 100 µM each time. In addition, the TGI in the experiment with SW-620 colon and in the experiment with U251 CNS was above 100 µM throughout.
For `CCOC(=O)Cc1cc(OC)c(OC)cc1/C(Cl)=C(\CO)c1ccc(OC)c(OC)c1`, the concentration for total growth inhibition (TGI) in the experiment on A549 NSCLC, with CCRF-CEM leukemia, in the experiment with COLO 205 colon, in the experiment on EKVX NSCLC, in the experiment with HCT-116 colon and with HCT-15 colon was above 100 µM each time. The TGI in the experiment with HT29 colon, with NCI-H23 lung, with OVCAR-3 ovarian, in the experiment with OVCAR-8 ovarian, in the experiment on SF-295 CNS and in the experiment with SK-MEL-28 melanoma was above 100 µM each time. For the same compound, the TGI with SK-MEL-5 melanoma, in the experiment on SW-620 colon and with U251 CNS was above 100 µM in each case.
As for `O=C1C(Cl)N(c2c(Cl)cccc2Cl)C1c1c[nH]c2ccccc12` (stereo not given), the concentration for total growth inhibition (TGI) with A549 NSCLC, with CCRF-CEM leukemia, with COLO 205 colon, in the experiment with EKVX NSCLC, with HCT-116 colon and with HT29 colon was above 100 µM each time. Besides, the concentration for total growth inhibition (TGI) in the experiment on KM12 colon, in the experiment with NCI-H23 lung, with OVCAR-3 ovarian, in the experiment on OVCAR-8 ovarian, with SF-295 CNS and in the experiment on SF-539 CNS was above 100 µM in each case. Besides, the TGI in the experiment with SK-MEL-2 melanoma, in the experiment with SK-MEL-28 melanoma, with SK-MEL-5 melanoma, in the experiment on SW-620 colon and with U251 CNS was above 100 µM throughout.
Take `C[N+](C)(CCCCCC[N+](C)(C)CCCN1C(=O)c2cccc3cccc(c23)C1=O)CCCN1C(=O)c2cccc3cccc(c23)C1=O`: the TGI with A498 renal, in the experiment with A549 NSCLC, in the experiment on CCRF-CEM leukemia, in the experiment with COLO 205 colon, in the experiment with EKVX NSCLC and in the experiment on HCT-116 colon was above 100 µM in each case. Besides, the TGI with HCT-15 colon, with HT29 colon, in the experiment on KM12 colon, in the experiment with NCI-H23 lung, in the experiment with OVCAR-3 ovarian and in the experiment with OVCAR-8 ovarian was above 100 µM in each case. Moreover, the TGI with SF-295 CNS, with SF-539 CNS, with SK-MEL-2 melanoma, in the experiment on SK-MEL-28 melanoma, in the experiment on SK-MEL-5 melanoma and with SW-620 colon was above 100 µM throughout. In the experiment on U251 CNS, this compound returned a concentration for total growth inhibition (TGI) above 100 µM.
Consider `N#C/C(=C\c1ccncc1)c1csc2ccccc12`, for which the total growth inhibition concentration (TGI) is 66.6 µM with A498 renal; above 100 µM in the experiment on A549 NSCLC; 55.8 µM in the experiment with CCRF-CEM leukemia; 35.9 µM in the experiment on COLO 205 colon; above 100 µM in the experiment on EKVX NSCLC; 35.8 µM in the experiment with HCC-2998 colon. Also, the total growth inhibition concentration (TGI) in the experiment with HCT-116 colon is 33.4 µM; in the experiment on HCT-15 colon, 77.4 µM; in the experiment on HT29 colon, 48.2 µM; in the experiment on KM12 colon, 37.8 µM; in the experiment on NCI-H23 lung, above 79.8 µM; with OVCAR-3 ovarian, 42.9 µM. For the same compound, the TGI is above 85.1 µM in the experiment on OVCAR-8 ovarian; above 100 µM with SF-295 CNS; 48.9 µM with SF-539 CNS; 42.2 µM in the experiment with SK-MEL-2 melanoma; above 100 µM in the experiment on SK-MEL-28 melanoma; 33.2 µM with SK-MEL-5 melanoma. For the same compound, the concentration for total growth inhibition (TGI) worked out at 67.7 µM in the experiment on SW-620 colon and 61.9 µM with U251 CNS.
Take `OCC1O[C@H](O[C@@H]2CCCN3CC(O)C(O)[C@@H]23)C(O)C(O)C1O` (stereo not given in full): the TGI with A498 renal, in the experiment with A549 NSCLC, in the experiment with CCRF-CEM leukemia, with COLO 205 colon, in the experiment with EKVX NSCLC and in the experiment with HCC-2998 colon was above 100 µM in each case. Besides, the TGI in the experiment on HCT-116 colon, in the experiment on HCT-15 colon, with HT29 colon, in the experiment with KM12 colon, in the experiment with NCI-H23 lung and in the experiment on OVCAR-3 ovarian was above 100 µM throughout. In addition, the TGI in the experiment with OVCAR-8 ovarian, in the experiment on SF-295 CNS, in the experiment with SF-539 CNS, in the experiment with SK-MEL-2 melanoma, in the experiment with SK-MEL-28 melanoma and with SK-MEL-5 melanoma was above 100 µM in each case. Moreover, the total growth inhibition concentration (TGI) with SW-620 colon and in the experiment on U251 CNS was above 100 µM in each case.
In the case of `O=C(Nc1ccc([N+](=O)[O-])cc1)Nn1cnnc1`, the total growth inhibition concentration (TGI) in the experiment on A498 renal, with A549 NSCLC, with CCRF-CEM leukemia, in the experiment with COLO 205 colon, in the experiment with EKVX NSCLC and in the experiment on HCC-2998 colon was above 100 µM in each case. The concentration for total growth inhibition (TGI) was above 100 µM with HCT-116 colon; above 100 µM in the experiment with HCT-15 colon; above 100 µM with HT29 colon; 72.6 µM in the experiment on KM12 colon; 48.8 µM in the experiment on NCI-H23 lung; 72.8 µM with OVCAR-3 ovarian. The total growth inhibition concentration (TGI) was 67 µM in the experiment with OVCAR-8 ovarian; 63.4 µM with SF-295 CNS; 73.9 µM with SF-539 CNS; above 100 µM in the experiment with SK-MEL-2 melanoma; above 100 µM with SK-MEL-28 melanoma; above 100 µM with SK-MEL-5 melanoma. Besides, the TGI in the experiment on SW-620 colon and with U251 CNS was above 100 µM each time.
Consider `S=c1sc2c(s1)SC(c1ccccc1)CS2` (stereo not given), for which the TGI in the experiment on A498 renal, in the experiment on A549 NSCLC, in the experiment with CCRF-CEM leukemia, in the experiment on COLO 205 colon, in the experiment with EKVX NSCLC and in the experiment with HCC-2998 colon was above 100 µM in each case. Further, the TGI with HCT-116 colon, with HCT-15 colon, with HT29 colon, in the experiment on KM12 colon, in the experiment on NCI-H23 lung and in the experiment on OVCAR-3 ovarian was above 100 µM throughout. For the same compound, the TGI in the experiment with OVCAR-8 ovarian, with SF-295 CNS, in the experiment on SF-539 CNS, in the experiment on SK-MEL-2 melanoma, in the experiment on SK-MEL-28 melanoma and in the experiment on SK-MEL-5 melanoma was above 100 µM in each case. Also, the concentration for total growth inhibition (TGI) in the experiment with SW-620 colon and in the experiment on U251 CNS was above 100 µM in each case.
Take `OCC#CCNCl`: the concentration for total growth inhibition (TGI) with A498 renal, in the experiment with A549 NSCLC, in the experiment with CCRF-CEM leukemia, in the experiment with COLO 205 colon, with EKVX NSCLC and in the experiment on HCC-2998 colon was above 100 µM each time. Further, the TGI in the experiment with HCT-116 colon, in the experiment on HCT-15 colon, with HT29 colon, in the experiment with KM12 colon, in the experiment with NCI-H23 lung and in the experiment with OVCAR-3 ovarian was above 100 µM throughout. Further, the TGI with OVCAR-8 ovarian, with SF-295 CNS, in the experiment on SF-539 CNS, in the experiment on SK-MEL-2 melanoma, with SK-MEL-28 melanoma and in the experiment with SK-MEL-5 melanoma was above 100 µM throughout. For the same compound, the concentration for total growth inhibition (TGI) in the experiment on SW-620 colon and in the experiment with U251 CNS was above 100 µM each time.
For the compound `O=[N+]([O-])C(=C/c1ccccc1)/C(=C\c1ccccc1)[N+](=O)[O-]`, the TGI in the experiment with A549 NSCLC was found to be 78.8 µM; with CCRF-CEM leukemia it was 7.69 µM; with COLO 205 colon, 40 µM; with EKVX NSCLC, 34 µM; with HCC-2998 colon it was 36 µM; in the experiment on HCT-116 colon it was 31.7 µM. The total growth inhibition concentration (TGI) was 31.4 µM with HT29 colon; 29 µM in the experiment on KM12 colon; 31.1 µM with NCI-H23 lung; 45.3 µM in the experiment on OVCAR-3 ovarian; 47.1 µM in the experiment on OVCAR-8 ovarian; 36.2 µM in the experiment with SF-295 CNS. Also, the total growth inhibition concentration (TGI) in the experiment on SF-539 CNS is 12.7 µM; with SK-MEL-2 melanoma, 49.1 µM; with SK-MEL-28 melanoma, 31.2 µM; in the experiment on SK-MEL-5 melanoma it was 30.2 µM; with SW-620 colon it was 28.6 µM; with U251 CNS it was 29 µM.
Turning to `CC(C)(O)/C1=C/C=C/CCCCCCCCCC1`, the TGI with A498 renal, in the experiment with CCRF-CEM leukemia, in the experiment on COLO 205 colon, with EKVX NSCLC, with HCC-2998 colon and in the experiment with HCT-116 colon was above 100 µM in each case. Also, the total growth inhibition concentration (TGI) in the experiment on HCT-15 colon, in the experiment on HT29 colon, in the experiment with KM12 colon, with NCI-H23 lung, with OVCAR-3 ovarian and in the experiment on OVCAR-8 ovarian was above 100 µM throughout. In addition, the TGI in the experiment with SF-295 CNS was above 100 µM; in the experiment on SK-MEL-2 melanoma, above 100 µM; in the experiment on SK-MEL-28 melanoma, above 100 µM; in the experiment with SK-MEL-5 melanoma it was 1.73 µM; with SW-620 colon, above 100 µM; in the experiment with U251 CNS, above 100 µM.
With `O=S(O)CCCCCSSc1ccccc1`, the TGI is above 100 µM in the experiment with A498 renal; 50.3 µM in the experiment with CCRF-CEM leukemia; above 100 µM in the experiment on EKVX NSCLC; above 100 µM in the experiment on HCC-2998 colon; 70.2 µM with HCT-116 colon; above 100 µM with HT29 colon. In addition, the concentration for total growth inhibition (TGI) in the experiment on KM12 colon was above 100 µM; in the experiment on NCI-H23 lung, above 100 µM; with OVCAR-3 ovarian it was above 100 µM; with SF-539 CNS, 62.6 µM; in the experiment on SK-MEL-2 melanoma, 53.3 µM; in the experiment with SK-MEL-28 melanoma, above 100 µM. Further, in the experiment with U251 CNS, the total growth inhibition concentration (TGI) was found to be 94.1 µM.

The term TGI denotes the concentration at which net growth stops. Higher therefore signals lower sensitivity of the cells.
